Experimental data as given in article PMC5573151 (Clinical cancer research : an official journal of the …, 2009).

Target: HLA-A2.1 (Homo sapiens, UniProt P04439, D140Y/D185E/D98H/E176V/E277Q/G131W/G231S/I119V/I121R/I166T/I218V/L300P/L318F/N151K/N90K/P208A/P217A/Q86G/Q94H/R138H/R169H/T345S)
Assay: MHC stabilization
Assay type: binding
Details: T2 cell assay

Row | Sequence | Binding to A2.1 (in words)
1 | KLLPLPSAI [SIM2(25)] | strongly bind
2 | SLYDSCYQI [SIM2(199)] | strongly bind
